The subject of one assay is endogenous β-IFN mRNA. In words: Northern blot, endogenous β-IFN mRNA in 70Z/3 cells. The settings on record: PMA 50 ng/ml, LPS 15 μg/ml or Sendai virus, 0 to 20 hr. The class given is cell-based, mouse. The protocol:
(§1) FIG. 42C presents results of Northern blot analyses of 70Z/3 cells treated with various inducers.
(§2) RNA preparation and Northern blot analysis were carried out as previously described by Zinn et al., Cell, 34, 865-879 (1983).

A further assay relates to NF-KB in 70Z/3 cells. In words: TPA stimulation, subcellular fractions of 70Z/3 cells (mobility shift assay). It is filed as cell-based, mouse. The conditions noted are these: TPA-stimulated cells; fractions treated with formamide and DOC; densitometric scanning. The protocol:
Nuclear extracts, cytosolic and postnuclear membrane fractions were analyzed at equal amounts of protein in an electrophoretic mobility shift assay, described in Example 1, followed by fluorography.
To examine whether the form of NF-kB detected after in vitro activation in the cytosolic fraction could quantitatively account for the NF-kB found in nuclear extracts after TPA stimulation of cells, subcellular fractions of 70Z/3 cells were reinvestigated in mobility shift assays after treatment with formamide and DOC using equal cell-equivalents of subcellular fractions. Equal cell-equivalents of nuclear extracts (N) and cytosolic (C) and post-nuclear membrane fractions (P) from control (Co) and TPA-stimulated cells (TPA) were left untreated (lanes 1-6 and 13-18) or subjected to a formamide/desoxycholate treatment (Fa+DOC; lanes 7-12 and 19-24; for conditions see FIG. 31, lane 11). This treatment was preferred over the DOC/NP-40 chase treatment because it gave a higher resolution of bands in mobility shift assays. DNA-binding reactions were performed in the presence of 3.2 ug poly(d[I-C]) using 4.4 ug of protein from nuclear extracts, 8.8 ug of protein from cytosolic fractions or 2.2 ug of protein from postnuclear membrane fractions (all in 4 ul buffer D(+)). Fluorograms of native gels are shown. […]

The next assay concerns AP-1 in HeLa cells. The experiment in a line: TPA stimulation, AP-1 DNA-binding activity in HeLa subcellular fractions. It is filed as cell-based, human. An excerpt: FIG. 28 represents analysis of subcellular fractions for DNA-binding activity of the TPA-inducible transcription factor AP-1. Equal cell-equivalents of nuclear extracts (N) and cytosolic fractions (C) from 70Z/3 and HeLa cells were used in mobility shift assays. AP-1 specific DNA-binding activity was detected using an end-labeled EcoRI-HindIII fragment from the yeast HIS 4 promoter containing three binding sites for GCN4 recognized by mammalian AP-1. The three protein-DNA complexes seen on shorter exposures of the fluorogram are indicated by filled arrowheads and the position of unbound DNA-fragment by an open arrowhead.

Another assay relates to endogenous κ gene. In words: Northern blot, endogenous κ gene expression in 70Z/3 cells. It is filed as cell-based, mouse. The conditions noted are these: PMA 50 ng/ml, LPS 15 μg/ml or Sendai virus, 0 to 20 hr. Here is the method: as §1, §2
The next assay relates to HeLa cells. The settings on record: anisomycin at 10; cited from earlier work.
A further assay relates to NF-κB. The experiment in a line: GTP stimulation of NF-κB complex formation in the binding assay. It is filed as biochemical. The settings on record: GTP 3 mM added to the binding assay; virus-induced extracts.
The next assay has as its system 70Z/3 cells. The settings on record: 10 μg/mo cycloheximide; cited from earlier work.

On to `CCCCCCCCCCCCCC(=O)O[C@@H]1[C@@H](C)[C@@]2(O)[C@@H](C=C(CO)C[C@]3(O)C(=O)C(C)=C[C@@H]23)[C@@H]2C(C)(C)[C@]12OC(C)=O` [PMA, phorbol 12-myristate-13-acetate], for which the “endogenous β-IFN mRNA” value in the assay on endogenous β-IFN mRNA is recorded as “not”. Further, the “kB-specific DNA-binding activity found in nuclear extracts” value with NF-KB in 70Z/3 cells is on record as 80%. In addition, the “AP-1 DNA-binding activity in nuclear extracts after TPA-stimulation” value in the assay on AP-1 in HeLa cells is “did not show an increase”. The “endogenous κ gene expression” value in the assay with endogenous κ gene is reported as “activation of the endogenous κ gene”.
In the case of `COc1ccc(C[C@H]2NC[C@H](O)[C@H]2OC(C)=O)cc1` [anisomycin], in the assay on HeLa cells, the “inhibition of protein synthesis” value was “approximately 99%”.
`Nc1nc2c(ncn2[C@@H]2O[C@H](COP(=O)(O)OP(=O)(O)OP(=O)(O)O)[C@@H](O)[C@H]2O)c(=O)[nH]1` [GTP]: the NF-κB complex formation result in the assay with NF-κB is recorded as “stimulated”.
On to `C[C@@H]1C[C@@H]([C@H](O)CC2CC(=O)NC(=O)C2)C(=O)[C@@H](C)C1` [cycloheximide], for which the “inhibition of protein synthesis” value in the assay on 70Z/3 cells is “greater than 95%”.

The values are drawn from patent US6410516B1.
